Reference: US4103011A, “Novel penicillin compounds and process for preparation thereof” (priority 1976, dated 1978)
Structures can show the parent of a compound that is named as a salt. Where two headings read alike, the source gives them in different places.

Tests used:
[1] = tested on: Corynebacterium pyogenes C-21; experiment: In vitro antibacterial activity (MIC); format: cell-based; conditions: Rhodococcus (subgen. Prescottella) equi, C21; Corynebacterium pyogenes C-21; read-out: minimum inhibitory concentration (MIC)
Description: (§1) In vitro antibacterial activity against 20 strains of bacteria
(§2) The numerals in the table show minimum inhibitory concentrations (MIC)

[2] = tested on: Enterobacter cloacae P-2540; experiment: In vitro antibacterial activity (MIC); format: cell-based
Description: as §1, §2

[3] = tested on: Escherichia coli NIHJ JC-2; experiment: In vitro antibacterial activity (MIC); format: cell-based
Description: as §1, §2

Escherichia coli P-140a = experiment: In vitro antibacterial activity (MIC); format: cell-based
Description: as §1, §2

Escherichia coli P-5101 [4] = experiment: In vitro antibacterial activity (MIC); format: cell-based
Description: as §1, §2

[5] = tested on: Klebsiella pneumoniae No. 13; experiment: In vitro antibacterial activity (MIC); format: cell-based; conditions: Klebsiella pneumoniae No. 13; read-out: minimum inhibitory concentration (MIC)
Description: as §1, §2

Proteus mirabilis P-2381 = experiment: In vitro antibacterial activity (MIC); format: cell-based
Description: as §1, §2

Proteus morganii Kono = experiment: In vitro antibacterial activity (MIC); format: cell-based; conditions: Morganella morganii, read-out: minimum inhibitory concentration (MIC)
Description: as §1, §2

Proteus rettgeri P-2503 = experiment: In vitro antibacterial activity (MIC); format: cell-based; conditions: Providencia rettgeri
Description: as §1, §2

[6] = tested on: Pseudomonas aeruginosa No.12; experiment: In vitro antibacterial activity (MIC); format: cell-based; conditions: Pseudomonas aeruginosa, NO.12, read-out: minimum inhibitory concentration (MIC)
Description: as §1, §2

[7] = tested on: Pseudomonas aeruginosa Tsuchijima; experiment: In vitro antibacterial activity (MIC); format: cell-based; conditions: Pseudomonas aeruginosa Tsuchijima; read-out: minimum inhibitory concentration (MIC)
Description: as §1, §2

[8] = tested on: Salmonella enteritidis No. 1891; experiment: In vitro antibacterial activity (MIC); format: cell-based; conditions: Salmonella enterica; Salmonella enteritidis No. 1891; read-out: minimum inhibitory concentration (MIC)
Description: as §1, §2

[9] = tested on: Salmonella typhimurium S-9; experiment: In vitro antibacterial activity (MIC); format: cell-based; conditions: Salmonella enterica; Salmonella typhimurium S-9; read-out: minimum inhibitory concentration (MIC)
Description: as §1, §2

[10] = tested on: Serratia mercescens IFO 3736; experiment: In vitro antibacterial activity (MIC); format: cell-based; conditions: IFO3736; Serratia mercescens IFO 3736; read-out: minimum inhibitory concentration (MIC)
Description: as §1, §2

Shigella flexneri 2a = experiment: In vitro antibacterial activity (MIC); format: cell-based; conditions: read-out: minimum inhibitory concentration (MIC)
Description: as §1, §2

[11] = tested on: Shigella flexneri 4a P-330; experiment: In vitro antibacterial activity (MIC); format: cell-based; conditions: 4AP330, read-out: minimum inhibitory concentration (MIC)
Description: as §1, §2

[12] = tested on: Staphylococcus aureus 209P JC-1; experiment: In vitro antibacterial activity (MIC); format: cell-based; conditions: Staphylococcus aureus 209P JC-1; read-out: minimum inhibitory concentration (MIC)
Description: as §1, §2

[13] = tested on: Staphylococcus aureus No. 50774; experiment: In vitro antibacterial activity (MIC); format: cell-based; conditions: Staphylococcus aureus No. 50774; read-out: minimum inhibitory concentration (MIC)
Description: as §1, §2

[14] = tested on: Streptococcus faecalis P-2473; experiment: In vitro antibacterial activity (MIC); format: cell-based; conditions: Enterococcus faecalis, P2473; Streptococcus faecalis P-2473; read-out: minimum inhibitory concentration (MIC)
Description: as §1, §2

[15] = tested on: Streptococcus pyogenes 65A; experiment: In vitro antibacterial activity (MIC); format: cell-based; conditions: Streptococcus pyogenes 65A; read-out: minimum inhibitory concentration (MIC)
Description: as §1, §2

[16] = tested on: Staphylococcus aureus No. 50774; experiment: In vivo efficacy against systemic infection; set-up: species or system male mice (ddY); conditions: NO.50774, in Mus musculus, 336 h, sc, twice, about 5 minutes and 6 hours after infection, read-out: ED50 (median effective dose)
Method: (§3) The contents in the vials (No. A and No. C) prepared in Example 17 were each dissolved in deionized water, and injections having various concentrations were prepared.
(§4) Compounds A, B, F, G, H and M were dissolved in deionized water. Compounds C, D, E and J were dissolved in an aqueous solution of sodium carbonate (pH 8-9) to prepare injections of various concentrations.
(§5) Each of the injections was administered to mice under the conditions described below, and the median effective doses (ED50) obtained are shown in Table II.
(§6) Mice: male mice (ddY) weighting about 20g
Staphylococcus aureus No. 50774;
Intravenous infection with 50 to 100
LD50 (about 5 × 10^8cells/mouse) of a
bacterial suspension in saline.
(§7) twice, about 5 minutes and 6 hours after
Staphylococcus aureus No. 50774 14 days
The numerals in the table show ED50 (mg/kg). ED50 values were
(§8) calculated in accordance with the Behrens-Kaerber method [Arch. Exp. Path

Escherichia coli P-5101 [17] = experiment: In vivo efficacy against systemic infection; set-up: species or system male mice (ddY); conditions: P5101, in Mus musculus, 168 h, twice, about 5 minutes and 6 hours after infection, read-out: ED50 (median effective dose)
Method: as §3
(§9) Compounds A, B, F, G, H and M were dissolved in deionized water.
as §6
(§10) Intraperitoneal infection with 50 to
(§11) of a bacterial suspension in tryptosoy
as §7, §8

[18] = tested on: Pseudomonas aeruginosa No. 12; experiment: In vivo efficacy against systemic infection; set-up: species or system male mice (ddY); conditions: for ED50: NO.12, in Mus musculus
Method: as §3, §9, §6
Pseudomonas aeruginosa No. 12;
as §10, §11, §7
Pseudomonas aeruginosa No. 12
as §8

[19] = tested on: bacteria (systemic infection); experiment: In vivo efficacy against systemic infection, overall conclusions; set-up: species or system male mice (ddY); conditions: Table II
Method: as §3, §4, §5

in vivo = conditions: mouse
[20] = P2540, Enterobacter cloacae P-2540, read-out: minimum inhibitory concentration (MIC)
[21] = Escherichia coli, NIHJJC2, read-out: minimum inhibitory concentration (MIC)
[22] = P2503, Proteus rettgeri P-2503, read-out: minimum inhibitory concentration (MIC)
[23] = iv, twice, about 5 minutes and 6 hours after infection, read-out: ED50 (median effective dose)
[24] = sc, twice, about 5 minutes and 6 hours after infection, read-out: ED50 (median effective dose)
[25] = Escherichia coli, P5101, read-out: minimum inhibitory concentration (MIC)
[26] = Proteus mirabilis, P2381, read-out: minimum inhibitory concentration (MIC)

CC(=O)N1CCN(c2ncc3c(=O)c(C(=O)N[C@@H](C(=O)N[C@@H]4C(=O)N5[C@@H]4SC(C)(C)[C@@H]5C(=O)O)c4ccc(O)cc4)c[nH]c3n2)CC1 [Compound 2, D-α-[5,8-Dihydro-2-(4-acetyl-1-piperazinyl)-5-oxopyrido[2,3-d]pyrimidine-6-carboxamido]-p-hydroxybenzylpenicillin sodium salt]
MIC [1]: 0.78 µg/mL | MIC [2, 20]: 6.25 µg/mL | MIC [3, 21]: 3.13 µg/mL | minimum inhibitory concentration (MIC) (Escherichia coli P-140a): 12.5 µg/mL | MIC (Escherichia coli P-5101 [4]; P5101, Escherichia coli P-5101, read-out: minimum inhibitory concentration (MIC)): 0.78 µg/mL | MIC [5]: 12.5 µg/mL | MIC (Proteus mirabilis P-2381; P2381, Proteus mirabilis P-2381, read-out: minimum inhibitory concentration (MIC)): 6.25 µg/mL | MIC (Proteus morganii Kono; Proteus morganii Kono): 6.25 µg/mL | MIC (Proteus rettgeri P-2503; [22]): 25 µg/mL | MIC [6]: 3.13 µg/mL | MIC [7]: 0.78 µg/mL | MIC [8]: 0.78 µg/mL | MIC [9]: 0.78 µg/mL | MIC [10]: 6.25 µg/mL | MIC (Shigella flexneri 2a): 3.13 µg/mL | MIC [11]: 3.13 µg/mL | MIC [12]: 1.56 µg/mL | MIC [13]: 1.56 µg/mL | MIC [14]: 6.25 µg/mL | MIC [15]: 0.006 µg/mL | ED50 [16]: 3.3 mg/kg | ED50 (Escherichia coli P-5101 [17]; iv): 3.9 mg/kg | ED50 (Escherichia coli P-5101 [17]; sc): 4.6 mg/kg | ED50 [18, 23]: 6 mg/kg | ED50 ([18]; parenteral administration, compounds 1 and 2 together, read-out: ED50): 2 to 6 mg/kg | ED50 [18, 24]: 5 mg/kg | antibacterial activity compared with compounds J and H (in words) ([18]; parenteral administration): far superior antibacterial activity | antibacterial activity relative to compounds B and C (times as high) ([18]; parenteral administration): 3 to 25 times | antibacterial activity relative to compounds D and E (times as high) ([18]; parenteral administration): 6 to 20 times | antibacterial activity in vivo (in words) [19]: excellent antibacterial activity in vivo | chemotherapeutic index relative to compounds B, D, E, F, G and J (times as high) (mice; Pseudomonas aeruginosa): 3 to 100 times | LD50 relative to compounds A to G (times as high) (mice; mice): 2 to 10 times | LD50 at 168 h (in vivo; iv): 4520 mg/kg | selectivity ratio (in vivo; iv): 753 | LD50 at 168 h (in vivo; sc): > 6000 mg/kg | selectivity ratio (in vivo; sc): > 1200

CNc1ncc2c(=O)c(C(=O)N[C@@H](C(=O)N[C@@H]3C(=O)N4[C@@H]3SC(C)(C)[C@@H]4C(=O)O)c3ccc(O)cc3)c[nH]c2n1 [Compound F, D-α-(5,8-Dihydro-2-methylamino-5-oxopyrido[2,3-d]pyrimidine-6-carboxamido)-p-hydroxybenzylpenicillin sodium salt]
MIC [1]: 0.78 µg/mL | MIC [2, 20]: 12.5 µg/mL | MIC ([3]; NIHJJC2, Escherichia coli NIHJ JC-2, read-out: minimum inhibitory concentration (MIC)): 12.5 µg/mL | minimum inhibitory concentration (MIC) (Escherichia coli P-140a): 25 µg/mL | MIC (Escherichia coli P-5101 [4]; [25]): 3.13 µg/mL | MIC [5]: 25 µg/mL | MIC (Proteus mirabilis P-2381; [26]): 3.13 µg/mL | MIC (Proteus morganii Kono; Proteus morganii Kono): 12.5 µg/mL | MIC (Proteus rettgeri P-2503; [22]): 12.5 µg/mL | MIC [6]: 6.25 µg/mL | MIC [7]: 0.78 µg/mL | MIC [8]: 1.56 µg/mL | MIC [9]: 1.56 µg/mL | MIC [10]: 12.5 µg/mL | MIC (Shigella flexneri 2a): 3.13 µg/mL | MIC [11]: 6.25 µg/mL | MIC [12]: 0.39 µg/mL | MIC [13]: 0.39 µg/mL | MIC [14]: 1.56 µg/mL | MIC [15]: < 0.1 µg/mL | ED50 [16]: ~0.7 mg/kg | ED50 (Escherichia coli P-5101 [17]; iv): 12 mg/kg | ED50 (Escherichia coli P-5101 [17]; sc): 6.3 mg/kg | ED50 [18, 23]: 5.7 mg/kg | ED50 [18, 24]: 4.8 mg/kg | antibacterial activity in vivo (in words) [19]: almost comparable | LD50 at 168 h (in vivo; iv): 1410 mg/kg | selectivity ratio (in vivo; iv): 248 | LD50 at 168 h (in vivo; sc): 1410 mg/kg | selectivity ratio (in vivo; sc): 295

CC1(C)S[C@@H]2[C@H](NC(=O)[C@H](NC(=O)c3c[nH]c4nc(N)ncc4c3=O)c3ccc(O)cc3)C(=O)N2[C@H]1C(=O)O [Compound G, D-α-(5,8-Dihydro-2-amino-5-oxopyrido[2,3-d]pyrimidine-6-carboxamido)-p-hydroxybenzylpenicillin sodium salt]
MIC [1]: 0.78 µg/mL | MIC ([2]; Enterobacter cloacae, P2540, read-out: minimum inhibitory concentration (MIC)): 6.25 µg/mL | MIC [3, 21]: 6.25 µg/mL | minimum inhibitory concentration (MIC) (Escherichia coli P-140a): 50 µg/mL | MIC (Escherichia coli P-5101 [4]; [25]): 3.13 µg/mL | MIC [5]: 25 µg/mL | MIC (Proteus mirabilis P-2381; [26]): 3.13 µg/mL | MIC (Proteus morganii Kono): 6.25 µg/mL | MIC (Proteus rettgeri P-2503; P2503, read-out: minimum inhibitory concentration (MIC)): 6.25 µg/mL | MIC [6]: 3.13 µg/mL | MIC [7]: 0.39 µg/mL | MIC [8]: 0.78 µg/mL | MIC [9]: 1.56 µg/mL | MIC [10]: 12.5 µg/mL | MIC (Shigella flexneri 2a): 3.13 µg/mL | MIC [11]: 6.25 µg/mL | MIC [12]: 0.39 µg/mL | MIC [13]: 0.39 µg/mL | MIC [14]: 1.56 µg/mL | MIC [15]: < 0.1 µg/mL | ED50 [16]: ~0.8 mg/kg | ED50 (Escherichia coli P-5101 [17]; iv): 8.8 mg/kg | ED50 (Escherichia coli P-5101 [17]; sc): 11.5 mg/kg | ED50 [18, 23]: 3.9 mg/kg | ED50 [18, 24]: 4.4 mg/kg | antibacterial activity in vivo (in words) [19]: almost comparable | LD50 at 168 h (in vivo; iv): 1000 mg/kg | selectivity ratio (in vivo; iv): 256 | LD50 at 168 h (in vivo; sc): 1000 mg/kg | selectivity ratio (in vivo; sc): 227
